In the data set the target is HSD17B13. The settings on record: ASO, HepaRG.

From the OligoGym collection come the findings set out here.

After the bases stand the sugars from the 5' end (letter, count) and the backbone: PS all phosphorothioate, else s phosphorothioate and o phosphodiester by linkage. Methylation of C is not given here. e = 2'-O-(2-methoxyethyl) (MOE); k = constrained ethyl (cEt); d = 2'-deoxy (DNA); m = 2'-O-methyl

Regarding “GGAATGCTACTTGAAC (sugars k3 d9 k3 e1, PS)”, for the setting “1 µM”, the target mRNA inhibition was 68%.

“TCACCTTTCATAATGT (sugars k3 d9 k3 e1, PS)” gave a target mRNA inhibition (1 µM) of 41%.

CTCAAAGTCAGTATCC (sugars k3 d10 k3, PS) gave a target mRNA inhibition (1 µM) of 70%.

Regarding “CACCGTTTTGGGCTAA (sugars k3 d1 m1 d8 k3, PS)”, the target mRNA inhibition is, setting by setting: (0.02 µM) 12%; (0.078 µM) 32%; (0.313 µM) 54%; (1 µM) 82%; (1.25 µM) 71%; (5 µM) 84%.

As to “AGAGTTGCACCGTTTT (sugars k3 d9 k3 e1, PS)”, the target mRNA inhibition (0.02 µM) was found to be 0%; the target mRNA inhibition (0.078 µM) stood at 0%; the target mRNA inhibition (0.313 µM) was found to be 26%; the target mRNA inhibition (1 µM) was determined as 78%; the target mRNA inhibition (1.25 µM) turned out to be 55%; the target mRNA inhibition (5 µM) is 45%.

ATATATACCTGTTGCC (sugars k3 d10 k3, PS) registered a target mRNA inhibition (1 µM) of 28%.

Sequence AACTTCACCAACGACT (sugars k3 d10 k3, PS) gave a target mRNA inhibition (1 µM) of 0%.

TTTTCGGCACTCAGCT (sugars k3 d10 k3, PS): the target mRNA inhibition (1 µM) turned out to be 13%.

As to “GTCCAGGTTGAGATAA (sugars k3 d1 m1 d8 k3, PS)”, where the note is “1 µM”, the target mRNA inhibition was found to be 68%.

Regarding “TGCACCGTTTTGGGCT (sugars kkdddddddddkekek, PS)”, the target mRNA inhibition (1 µM) is 29%.

For the sequence “AGTAGTGTAAGCTGAG (sugars k3 d9 k3 e1, PS)”, the target mRNA inhibition (1 µM) was determined as 71%.

For the sequence CATTTTTAATACGACT (sugars k3 d10 k3, PS), the target mRNA inhibition (1 µM) was 57%.

Under “1 µM”, “ATAGAGTCGGTCACCT (sugars kkdddddddddkekek, PS)” gave a target mRNA inhibition of 56%.

In the case of “AACTTCATAGTGGACT (sugars kkdddddddddkekek, PS)”, the target mRNA inhibition (1 µM) worked out at 68%.

For the sequence “TGTAGTGGGAGTCGGA (sugars k3 d9 k3 e1, PS)”, the target mRNA inhibition (1 µM) was 53%.

CTGTAAGAGTCAGTAT (sugars k3 d10 k3, PS) registered a target mRNA inhibition (1 µM) of 42%.

The sequence TTGAGATAAAGCTGCC (sugars k3 d10 k3, PS) gave a target mRNA inhibition (1 µM) of 49%.

CCAACCAAACTTCCAG (sugars k3 d10 k3, PS) returned a target mRNA inhibition (1 µM) of 70%.

Where the note is “1 µM”, “TAGTAATCACAAGTAA (sugars k3 d9 k3 e1, PS)” had a target mRNA inhibition of 65%.

TATGGTAAGCCCCATG (sugars k3 d10 k3, PS) registered a target mRNA inhibition (1 µM) of 30%.

Regarding GTCATAAAAATCGCTG (sugars k3 d10 k3, PS), the target mRNA inhibition stood at 25% (0.02 µM); 34% (0.078 µM); 51% (0.313 µM); 72% (1 µM); 70% (1.25 µM); 86% (5 µM).

For the sequence “CTTAAGATACCCAGGT (sugars k3 d9 k3 e1, PS)”, the target mRNA inhibition (1 µM) was found to be 45%.

For the sequence TTAGCTTAAACTCCAA (sugars k3 d10 k3, PS), the target mRNA inhibition was found to be 0% (0.02 µM); 18% (0.078 µM); 38% (0.313 µM); 78% (1 µM); 75% (1.25 µM); 82% (5 µM).

Take “GGTCACCTTTCATAAT (sugars k3 d9 k3 e1, PS)”: the target mRNA inhibition (1 µM) stood at 49%.

“TGCTACTTGAACAGTC (sugars k3 d9 k3 e1, PS)”: the target mRNA inhibition (1 µM) stood at 68%.

Sequence CTTTTTATAGACTGGG (sugars k3 d10 k3, PS) registered a target mRNA inhibition (1 µM) of 67%.

Regarding TATAGACTGGGTAGGA (sugars k3 d10 k3, PS), where the note is “1 µM”, the target mRNA inhibition turned out to be 61%.

In turn, CGAATTATTTCTTGCG (sugars k3 d10 k3, PS) came in with a target mRNA inhibition (1 µM) of 58%.

The sequence GTGCTGAGAAGATCGG (sugars k3 d10 k3, PS) had a target mRNA inhibition (1 µM) of 0%.

In turn, “CTTAAACCTTCCCTGT (sugars k3 d1 m1 d8 k3, PS)” had a target mRNA inhibition (1 µM) of 24%.

The sequence “TTCTUATGTAATAGCC (sugars k3 d1 m1 d8 k3, PS)” had a target mRNA inhibition (1 µM) of 66%.

Regarding “ACTAATATTGAGGCAC (sugars k3 d9 k3 e1, PS)”, for the setting “1 µM”, the target mRNA inhibition is 62%.

Sequence ATCGGCTGGATATACT (sugars k3 d10 k3, PS) registered a target mRNA inhibition (1 µM) of 10%.

TTCTTACGACTTCATC (sugars k3 d10 k3, PS) had a target mRNA inhibition (1 µM) of 47%.

With GCCGCACACTGAAGCC (sugars k3 d10 k3, PS), under “1 µM”, the target mRNA inhibition was 25%.

In turn, TAGAATTGTCTGTTAG (sugars k3 d10 k3, PS) showed a target mRNA inhibition (1 µM) of 9%.

As to TCTTGATGTAGTGGGA (sugars k3 d10 k3, PS), the target mRNA inhibition (1 µM) was found to be 44%.

Regarding AGTTTTCACCTCAGGT (sugars k3 d10 k3, PS), where the note is “1 µM”, the target mRNA inhibition is 82%.

In the case of GAAACTTGATCTCTTA (sugars k3 d10 k3, PS), the target mRNA inhibition (1 µM) amounted to 64%.

Consider CCCCAAACATGGATGT (sugars k3 d10 k3, PS), for which, under “1 µM”, the target mRNA inhibition came to 62%.

For the sequence AACACTAATCTCAGTA (sugars k3 d10 k3, PS), under “1 µM”, the target mRNA inhibition was 15%.

CACTTTGGTATTGTTG (sugars k3 d10 k3, PS) yielded a target mRNA inhibition (1 µM) of 53%.

As to “GGAGTGCATCTTAAGA (sugars kkdddddddddkekek, PS)”, for the setting “1 µM”, the target mRNA inhibition turned out to be 34%.

Regarding CTTCACCAACGACTCC (sugars k3 d10 k3, PS), the target mRNA inhibition (1 µM) came out at 8%.

For “ACATTGCAGTTATTAG (sugars k3 d9 k3 e1, PS)”, for the setting “1 µM”, the target mRNA inhibition worked out at 52%.

With GTTATCAGAAACTTAT (sugars k3 d10 k3, PS), under “1 µM”, the target mRNA inhibition amounted to 31%.

The sequence “GTCTTAAACCTTCCCT (sugars k3 d9 k3 e1, PS)” gave a target mRNA inhibition (1 µM) of 50%.

With GACTATAAAAAGGGAG (sugars k3 d10 k3, PS), the target mRNA inhibition (1 µM) was determined as 40%.

Turning to ATAATCTTGTGCTTGG (sugars k3 d10 k3, PS), the target mRNA inhibition (1 µM) was determined as 36%.

GGCTATAACTGGAAGG (sugars k3 d10 k3, PS): the target mRNA inhibition (1 µM) amounted to 52%.

In the case of GCTTTAATTTTTGAGC (sugars k3 d10 k3, PS), the target mRNA inhibition (1 µM) amounted to 26%.

Under “1 µM”, “GTAATAGCCAGTACAG (sugars k3 d9 k3 e1, PS)” yielded a target mRNA inhibition of 62%.

Sequence GTATGTTTATGTAAGC (sugars k3 d10 k3, PS) gave a target mRNA inhibition (0.02 µM) of 0%; a target mRNA inhibition (0.078 µM) of 16%; a target mRNA inhibition (0.313 µM) of 33%; a target mRNA inhibition (1 µM) of 80%; a target mRNA inhibition (1.25 µM) of 77%; a target mRNA inhibition (5 µM) of 87%.

As to “TGTAATAGCCAGTACA (sugars k3 d9 k3 e1, PS)”, for the setting “1 µM”, the target mRNA inhibition is 34%.

In the case of TATGTGAAGAGCTGGT (sugars k3 d10 k3, PS), the target mRNA inhibition (1 µM) is 63%.

“CAGATTGGAATGCTAC (sugars k3 d9 k3 e1, PS)”: the target mRNA inhibition (1 µM) is 61%.

AGAAGATCGGCTGGAT (sugars k3 d10 k3, PS) came in with a target mRNA inhibition (1 µM) of 29%.

Consider CTTCTGTAGGTTTTGC (sugars k3 d10 k3, PS), for which the target mRNA inhibition (1 µM) is 60%.

Sequence “CTGGAACAATATGGGA (sugars k3 d9 k3 e1, PS)” displayed a target mRNA inhibition (1 µM) of 36%.
